Laboratory results: the RepoRT retention time repository (doi:10.3390/metabo9050085)

Experiment: Phenomenex Kinetex C18, 150 × 2.1 mm, 1.7 µm, 30 °C, 0.3 mL/min; A: water + 0.1% formic acid; B: acetonitrile + 0.1% formic acid; gradient (min/%B) 0/2 14/100 17/100 17/2 25/2
Details: stereoisomer not certain

SMILES	LC retention time [min]
CC12CCCC1C1CC(O)C3(O)CC(O)CCC3(C)C1CC2 (stereo not given)	10.5
CC12CCC3C4=CC(=O)C(=O)C=C4CCC3C1CCC2O (stereo not given)	7.58
CC12CCC3C(CCC4CC(OS(=O)(=O)O)CCC43C)C1CCC2=O (stereo not given)	10.5
CC(=O)C1(O)CCC2C3CC=C4CC(O)CCC4(C)C3CCC21C (stereo not given)	10.7
CC12CCC3C(CCC4=CC(=O)CCC43CO)C1CCC2O (stereo not given)	7.3
CC12CCC3C(CCC4=CC(=O)CCC43CO)C1CCC2=O (stereo not given)	7.72
CC(=O)C1CCC2C3=CC=C4CC(O)CCC4(C)C3CCC12C (stereo not given)	11.6
CC12CCC3C(C(O)CC4CC(O)CCC43C)C1CC(O)C2 (stereo not given)	7.39
CC12CCC3C(C(O)CC4CC(O)CCC43C)C1CCC2=O (stereo not given)	8.74
CC12CC(O)C3C(CCC4=CC(=O)CCC43C)C1CCC2=O (stereo not given)	8.87
CC12CCC(=O)C=C1CC(O)C1C2CCC2(C)C(O)CCC12 (stereo not given)	7.06
CC12CC(=O)C3C(CCC4=CC(=O)CCC43C)C1CCC2=O (stereo not given)	8.68
CC12CCC(O)CC1CCC1C2CCC2(C)C1CCC2(O)C(=O)CO (stereo not given)	10.1
CC12CCC(O)CC1=CC(O)C1C2CCC2(C)C(O)CCC12 (stereo not given)	7.81
CC12CCC3C(C(O)CC4=CC(=O)CCC43C)C1CCC2=O (stereo not given)	7.78
CC12CCC3C(CC(O)C4CC(O)CCC43C)C1CCC2O (stereo not given)	8.18
CC12CCC(O)C=C1CCC1C2CCC2(C)C(O)CCC12 (stereo not given)	9.76
CC(C(=O)O)C1CCC2C3C(O)CC4CC(O)CCC4(C)C3CC(O)C12C (stereo not given)	8.37
CC(CCC(=O)O)C1CCC2C3CC=C4CC(O)CCC4(C)C3CCC12C (stereo not given)	15.8
CC12CCC(=O)C=C1CCC1C2C(O)CC2(C)C(O)CCC12 (stereo not given)	8.2
CC12CC(=O)C3C(CCC4CC(O)CCC43C)C1CCC2C(O)CO (stereo not given)	8.54
CC12CCC3C4CCC(=O)CC4CCC3C1CCC2O (stereo not given)	9.72
CC12CCC3C(CCC4=CC(=O)CCC43C=O)C1CCC2=O (stereo not given)	9.42
CC12CCC(O)CC1CCC1C2C(=O)CC2(CO)C(C(=O)CO)CCC12 (stereo not given)	7.57
CC12CCC(=O)C=C1CCC1C2CCC2(C)C(O)CC(O)C12 (stereo not given)	6.97
CC12CCC3c4ccc(O)c(O)c4CCC3C1CCC2O (stereo not given)	7.61
CC(O)C1CCC2C3CCC4=CC(=O)CCC4(C)C3CCC12C (stereo not given)	12

SMILES	LC retention time [min]
CC12CCC(=O)C=C1CCC1C2CCC2(C)C(OS(=O)(=O)O)CCC12 (stereo not given)	9.81
CC12CCC(O)CC1CCC1C2CCC2(C)C(C(=O)CO)CCC12 (stereo not given)	11.3
CC12CCC(O)CC1=CCC1C2CCC2(C)C(O)C(=O)CC12 (stereo not given)	8.03
CC12CCC3C(CCC4=CC(=O)CCC43C)C1CC(O)C2=O (stereo not given)	8.39
CC12C=CC(=O)CC1CCC1C2CCC2(C)C(O)CCC12 (stereo not given)	9.97
CC12CCC(O)CC1CCC1C2C(O)CC2(C=O)C(C(=O)CO)CCC12 (stereo not given)	7.76
CC12CCC(O)CC1CCC1C2C(=O)CC2(C)C1CCC2(O)C(=O)CO (stereo not given)	8.38
CC(O)C1CCC2C3CCC4CC(=O)CCC4(C)C3CCC12C (stereo not given)	13.9
CC12CC(=O)C3C(CCC4CC(O)CCC43C)C1CCC2C(=O)CO (stereo not given)	9.06
CC12CCC(O)CC1CCC1C2CC(O)C2(C)CCC(O)C12 (stereo not given)	6.31
CC(O)C1(O)CCC2C3CCC4CC(O)CCC4(C)C3CCC21C (stereo not given)	11
CC12CCC3C(C(=O)CC4CC(O)CCC43C)C1CCC2=O (stereo not given)	8
CC12CCC(O)CC1CCC1C2C2CC3(C(O)O2)C(C(=O)CO)CCC13 (stereo not given)	7.18
CC12CCC(O)CC1=CCC1C2C(O)CC2(C)C1CCC2(O)C(=O)CO (stereo not given)	8.15
CC(=O)C1CCC2C3C(O)C=C4CC(O)CCC4(C)C3CCC12C (stereo not given)	8.93
CC(O)C1(O)CCC2C3CCC4=CC(=O)CCC4(C)C3CCC21C (stereo not given)	9.92
CC12CCC3C(CCC4=CC(=O)CCC43C=O)C1CCC2O (stereo not given)	8.59
CC12CCC3C(CCC4=CC(=O)CCC43C)C1CCC2=O (stereo not given)	10.8
CC12C=CCC1C1CCC3CC(O)CCC3(C)C1CC2 (stereo not given)	11.9
CC12CCC(=O)CC1CCC1C2CCC2(C)C(OS(=O)(=O)O)CCC12 (stereo not given)	10.6
CC12CCC3C(CC=C4CC(=O)CCC43C)C1CCC2=O (stereo not given)	11
CC12CCC(O)CC1=CCC1C2CCC2(C)C(O)CCC12 (stereo not given)	10.8
CC(O)C1(O)CCC2C3CCC4CC(O)CCC4(C)C3C(=O)CC21C (stereo not given)	8.66
CC12CCCC1C1CCC3CC(O)CCC3(C)C1CC2 (stereo not given)	12.9
CC(CCC(=O)O)C1CCC2C3CCC4CCCCC4(C)C3CC(O)C12C (stereo not given)	16.7
CC12CCC(=O)CC1CCC1C2C(O)CC2(C=O)C(C(=O)CO)CCC12 (stereo not given)	7.97
CC12CCC3C(CC=C4CC(OS(=O)(=O)O)CCC43C)C1CCC2=O (stereo not given)	9.91

Now from value to compound:

LC retention time [min]	SMILES
8.06	CC12CCC3c4ccc(O)c(O)c4CCC3C1CCC2=O (stereo not given)
11.3	COc1cc2c(cc1O)CCC1C2CCC2(C)C(=O)CCC12 (stereo not given)
10.5	CC12CCC(O)CC1=CCC1C2CCC2(C)C(C(=O)CO)CCC12 (stereo not given)
7.15	CC12CCC(=O)C=C1CCC1C2C(O)CC2(C=O)C(C(=O)CO)CCC12 (stereo not given)
7.82	CC12CCC3c4ccc(O)cc4CCC3C1CC(=O)C2=O (stereo not given)
13	CC(=O)C1CCC2C3CC=C4CC(O)CCC4(C)C3CCC12C (stereo not given)
8.81	CC12CCC(=O)C=C1CCC1C2C(O)CC2(C)C(C(=O)CO)CCC12 (stereo not given)
8.89	CC12CCC3C(CCC4=CC(=O)CCC43C=O)C1CCC2C(=O)CO (stereo not given)
6.59	CC12CCC3c4ccc(O)cc4C(=O)CC3C1CC(O)C2O (stereo not given)
9.26	COc1cc2c(cc1O)C1CCC3(C)C(O)CCC3C1CC2 (stereo not given)
9.74	COc1c(O)ccc2c1CCC1C2CCC2(C)C(=O)CCC12 (stereo not given)
11.6	CC12CCC(=O)CC1CCC1C2CCC2(C)C(C(=O)CO)CCC12 (stereo not given)
12.7	CC(=O)C1=CCC2C3CCC4=CC(=O)CCC4(C)C3CCC12C (stereo not given)
7.34	CC12CCC(=O)C=C1CCC1C2C(O)CC2(CO)C(C(=O)CO)CCC12 (stereo not given)
7.33	CC12CCC3c4ccc(O)cc4CCC3C1C(O)CC2O (stereo not given)
10.5	COc1cc2c(cc1O)CCC1C2CCC2(C)C(O)CCC12 (stereo not given)
6.52	CC12CCC(=O)C=C1CCC1C2C(O)CC2(CO)C1CCC2(O)C(=O)CO (stereo not given)
6.76	CC12CCC(=O)C=C1CCC1C2C(O)CC2(C=O)C1CCC2(O)C(=O)CO (stereo not given)
8.53	CC12CCC(=O)C=C1CCC1C2C(=O)CC2(C)C(C(=O)CO)CCC12 (stereo not given)
9.83	COc1cc2c(cc1O)C1CCC3(C)C(=O)CCC3C1CC2 (stereo not given)
7.73	CC12CCC3c4ccc(OS(=O)(=O)O)c(O)c4CCC3C1CCC2=O (stereo not given)
10.7	CC12CCC3c4ccc(O)cc4CCC3C1CCC2=O (stereo not given)
8.1	CC12CCC(=O)C=C1CCC1C2C(O)CC2(C)C(C(=O)C(=O)O)CCC12 (stereo not given)

LC retention time [min]	SMILES
9.18	CC12CCC(=O)C=C1CCC1C2C(O)CC2(C)C(C(=O)CC(=O)O)CCC12 (stereo not given)
9.04	CC12CCC(=O)C=C1CCC1C2CCC2(C)C1CCC2(O)C(=O)CO (stereo not given)
10	CC12CCC(=O)C=C1CCC1C2CCC2(C)C1CCC2(O)CCO (stereo not given)
7.7	CC12CCC3c4ccc(O)cc4CCC3C1C(O)CC2=O (stereo not given)
8.03	CC12CCC3C(CCC4=CC(=O)CCC43C(=O)O)C1CCC2C(=O)CO (stereo not given)
7.97	CC12CCC3c4ccc(O)cc4C(O)CC3C1CCC2=O (stereo not given)
7.15	CC12CCC3c4ccc(O)cc4CC(O)C3C1CCC2O (stereo not given)
8.07	CC12CCC3c4cc(O)c(O)cc4CCC3C1CCC2=O (stereo not given)
8.44	CC12CCC(O)CC1=CCC1C2CCC2(C)C1CCC2(O)C(=O)CO (stereo not given)
10.5	CC12CCC(=O)C=C1CCC1C2CCC2(C)C(C(=O)CO)CCC12 (stereo not given)
10.9	CC(=O)C1(O)CCC2C3CCC4=CC(=O)CCC4(C)C3CCC21C (stereo not given)
7.01	CC12CCC3c4ccc(O)cc4C(O)CC3C1CCC2O (stereo not given)
7.61	CC12CCC(=O)C=C1CCC1C2C(O)CC2(C)C1CCC2(O)C(=O)CO (stereo not given)
7.1	O=CC12CC(O)C3C4CCC(=O)C=C4CCC3C1CCC2C(=O)CO (stereo not given)
9.08	CC(=O)C1C(O)CC2C3CCC4=CC(=O)CCC4(C)C3CCC21C (stereo not given)
7.75	CC12CCC(=O)C=C1CCC1C2C(=O)CC2(C)C1CCC2(O)C(=O)CO (stereo not given)
8.8	CC(=O)C1(O)CCC2C3CCC4=CC(=O)CCC4(C)C3C(O)CC21C (stereo not given)
8.65	CC12CCC3c4ccc(OS(=O)(=O)O)cc4CCC3C1CCC2=O (stereo not given)
9.87	CC(=O)C1C(O)CC2C3CC=C4CC(O)CCC4(C)C3CCC21C (stereo not given)
12.9	CC(=O)C1CCC2C3CCC4=CC(=O)CCC4(C)C3CCC12C (stereo not given)
7.86	CC12CCC3c4cc(O)c(O)cc4CCC3C1CCC2O (stereo not given)
11.5	COc1cc2c(cc1OC)C1CCC3(C)C(O)CCC3C1CC2 (stereo not given)
7.81	CC12CCC3C4=C(CCC3C1CCC2O)C(=O)C(=O)C=C4 (stereo not given)
